Experimental data from patent publication US6737383B1, “Herbicidal oxadiazolidines” (priority 1999, dated 2004).

What was measured:
galium = experiment: Test E galium; format: in vivo, Galium aparine; settings: Preemergence
hairy beggarticks = experiment: Test C postemergence hairy beggarticks; format: in vivo, Bidens pilosa; settings: 0 to 100 scale, 0 no effect, 100 complete control
Procedure: (§1) Compounds evaluated in this test were formulated in a non-phytotoxic solvent mixture which included a surfactant and applied to plants that were grown for various periods of time before treatment (postemergence application). A mixture of sandy loam soil and greenhouse potting mix in a 60:40 ratio was used for the postemergence test.
(§2) Plantings of these crops and weed species were adjusted to produce plants of appropriate size for the postemergence test. All plant species were grown using normal greenhouse practices. Crop and weed species include arrowleaf sida (Sida rhombifolia), barnyardgrass (Echinochloa crus-galli), cocklebur (Xanthium strumarium), common ragweed (Ambrosia elatior), corn (Zea mays), cotton (Gossypium hirsutum), eastern black nightshade (Solanum ptycanthum), fall panicum (Panicum dichotomiflorum), field bindweed (Convolvulus arvensis), giant foxtail (Setaria faberii), hairy beggarticks (Bidens pilosa), ivyleaf morningglory (Ipomoea hederacea), johnsongrass (Sorghum halepense), ladysthumb smartweed (Polygonum persicaria), lambsquarters (Chenopodium album), large crabgrass (Digitaria sanguinalis), purple nutsedge (Cyperus rotundus), redroot pigweed (Amaranthus retroflexus), soybean (Glycine max), surinam grass (Brachiaria decumbens), velvetleaf (Abutilon theophrasti) and wild poinsettia (Euphorbia heterophylla).
(§3) Treated plants and untreated controls were maintained in a greenhouse for approximately 14, to 21 days, after which all treated plants were compared to untreated controls and visually evaluated. Plant response ratings, summarized in Table C, were based upon a 0 to 100 scale where 0 was no effect and 100 was complete control. A dash response (−) means no test result.

littleseed canarygrass = experiment: Test E littleseed canarygrass; format: in vivo, Phalaris minor; settings: Preemergence
blackgrass = experiment: Test E blackgrass; format: in vivo, Alopecurus myosuroides; settings: Postemergence
Procedure: as §1, with “in the 1- to 4-leaf stage” for “grown for various periods of time before treatment”
(§4) Plantings of these crops and weed species were adjusted to produce plants of appropriate size for the postemergence test. All plant species were grown using normal greenhouse practices. Crop and weed species include annual bluegrass (Poa annua), blackgrass (Alopecurus myosuroides), black nightshade (Solanum nigra), chickweed (Stellaria media), common poppy (Papaver rhoeas), deadnettle (Lamium amplexicaule), downy brome (Bromus tectorum), field violet (Viola arvensis), galium (Galium aparine), green foxtail (Setaria viridis), Italian ryegrass (Lolium multiflorum), jointed goatgrass (Aegilops cylindrica), kochia (Kochia scoparia), lambsquarters (Chenopodium album), littleseed canarygrass (Phalaris minor), rape (Brassica napus), redroot pigweed (Amaranthus retroflexus), Russian thistle (Salsola kali), scentless chamomile (Matricaria inodora), spring barley (Hordeum vulgare), sugar beet (Beta vulgaris), sunflower (Helianthus annuus), ivyleaf speedwell (Veronica hederaefolia), spring wheat (Triticum aestivum), winter wheat (Triticum aestivum), wild buckwheat (Polygonum convolvulus), wild mustard (Sinapis arvensis), wild oat (Avena fatua), windgrass (Apera spica-venti) and winter barley (Hordeum vulgare).
(§5) Treated plants and untreated controls were maintained in a greenhouse for approximately 21 to 28 days, after which all treated plants were compared to untreated controls and visually evaluated. […] A dash response (-) means no test result.

jointed goatgrass [1] = experiment: Test E jointed goatgrass; format: in vivo, Aegilops cylindrica; settings: Preemergence
wild buckwheat = experiment: Test E wild buckwheat; format: in vivo, Polygonum convolvulus; settings: Postemergence
Procedure: as §1, with “in the 1- to 4-leaf stage” for “grown for various periods of time before treatment”
as §4, §5

spring barley = experiment: Test E spring barley; format: in vivo, Hordeum vulgare; settings: Preemergence
jointed goatgrass [2] = experiment: Test E jointed goatgrass; format: in vivo, Aegilops cylindrica; settings: Postemergence
Outline: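 Plants were grown under normal greenhouse practice; for postemergence, in sandy loam soil mixed 60:40 with potting mix, treated at the 1- to 4-leaf stage. The compound was in a non-phytotoxic solvent carrying a surfactant. After roughly 21 to 28 days plants were scored visually against untreated plants.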

sunflower = experiment: Test E sunflower; format: in vivo, Helianthus annuus; settings: Postemergence
Procedure: as §4, with “Plantings of these crops and weed species were adjusted to produce plants of appropriate size for the postemergence test.” left out
as §5

lambsquarters = experiment: Test C postemergence lambsquarters; format: in vivo, Chenopodium album; settings: 0 to 100 scale, 0 no effect, 100 complete control
Procedure: as §1, §2, §3

wild mustard = experiment: Test E wild mustard; format: in vivo, Sinapis arvensis; settings: Postemergence
Procedure: […] A mixture of sandy loam soil and greenhouse potting mix in a 60:40 ratio was used for the postemergence test.
as §4, §5

field bindweed = experiment: Test C postemergence field bindweed; format: in vivo, Convolvulus arvensis; settings: 0 to 100 scale, 0 no effect, 100 complete control
Procedure: as §1, §2, §3

barnyardgrass = experiment: Test A barnyardgrass; format: in vivo, Echinochloa crus-galli; settings: 0 to 10 scale where 0 is no effect and 10 is complete control
Outline: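 Visual injury score, 0 (no effect) to 10 (complete control), vs untreated controls at ~11 d in greenhouse. Pre: soil drench on sandy loam. Post: spray to runoff, 1–2 leaf stage.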

[3] = Rate 62 g/ha, 0 to 100 scale, 0 no effect, 100 complete control
[4] = Rate 125 g/ha, 0 to 100 scale (0 no effect, 100 complete control)
[5] = Rate 250 g/ha, 0 to 100 scale (0 no effect, 100 complete control)
[6] = Rate 500 g/ha, 0 to 100 scale where 0 is no effect and 100 is complete control
[7] = Rate 500 g/ha, 0 to 100 scale, 0 no effect, 100 complete control

## CCn1c(=O)on(C(=O)N(c2ccc(F)cc2)C(C)C)c1=O [Compound 107]
galium; [3]
  Plant response rating, Galium: 50
galium; [4]
  Plant response rating, Galium: 70
galium; Rate 250 g/ha, 0 to 100 scale
  Plant response rating, Galium: 100
Hairy beggarticks; Rate 140 g/ha
  Plant response rating H. beggarticks: 5
Hairy beggarticks; Rate 280 g/ha
  Plant response rating H. beggarticks: 60
Hairy beggarticks; Rate 560 g/ha
  Plant response rating H. beggarticks: 70
Hairy beggarticks; Rate 1120 g/ha
  Plant response rating H. beggarticks: 95
Littleseed canarygrass; [3]
  Plant response rating, LS canarygrass: 50
Littleseed canarygrass; [4]
  Plant response rating, LS canarygrass: 80
Littleseed canarygrass; Rate 250 g/ha, 0 to 100 scale
  Plant response rating, LS canarygrass: 80
blackgrass; Rate 62 g/ha, 0 to 100 scale
  Plant response rating, Blackgrass: 5
blackgrass; Rate 125 g/ha, 0 to 100 scale
  Plant response rating, Blackgrass: 80
blackgrass; [5]
  Plant response rating, Blackgrass: 85
Jointed goatgrass [1]; [3]
  Plant response rating, Jointed goatgra: 40
Jointed goatgrass [1]; [4]
  Plant response rating, Jointed goatgra: 50
Jointed goatgrass [1]; Rate 250 g/ha, 0 to 100 scale
  Plant response rating, Jointed goatgra: 50
Wild buckwheat; Rate 62 g/ha, 0 to 100 scale
  Plant response rating, Wild buckwheat: 0
Wild buckwheat; Rate 125 g/ha, 0 to 100 scale
  Plant response rating, Wild buckwheat: 0
Wild buckwheat; [5]
  Plant response rating, Wild buckwheat: 10
Spring barley; [3]
  Plant response rating, Spring Barley: 30
Spring barley; [4]
  Plant response rating, Spring Barley: 70
Spring barley; Rate 250 g/ha, 0 to 100 scale
  Plant response rating, Spring Barley: 70
Jointed goatgrass [2]; Rate 62 g/ha, 0 to 100 scale
  Plant response rating, Jointed goatgra: 0
Jointed goatgrass [2]; Rate 125 g/ha, 0 to 100 scale
  Plant response rating, Jointed goatgra: 10
Jointed goatgrass [2]; [5]
  Plant response rating, Jointed goatgra: 10
sunflower; Rate 62 g/ha, 0 to 100 scale
  Plant response rating, Sunflower: 10
sunflower; Rate 125 g/ha, 0 to 100 scale
  Plant response rating, Sunflower: 20
sunflower; [5]
  Plant response rating, Sunflower: 30
lambsquarters; Rate 140 g/ha
  Plant response rating, Lambsquarters: 0
lambsquarters; Rate 280 g/ha
  Plant response rating, Lambsquarters: 0
lambsquarters; Rate 560 g/ha
  Plant response rating, Lambsquarters: 40
lambsquarters; Rate 1120 g/ha
  Plant response rating, Lambsquarters: 40
Wild mustard; Rate 62 g/ha, 0 to 100 scale
  Plant response rating, Wild mustard: 5
Wild mustard; Rate 125 g/ha, 0 to 100 scale
  Plant response rating, Wild mustard: 90
Wild mustard; [5]
  Plant response rating, Wild mustard: 40
Field bindweed; Rate 140 g/ha
  Plant response rating Field bindweed: 0
Field bindweed; Rate 280 g/ha
  Plant response rating Field bindweed: 0
Field bindweed; Rate 560 g/ha
  Plant response rating Field bindweed: 30
Field bindweed; Rate 1120 g/ha
  Plant response rating Field bindweed: 60

## CCn1c(=O)on(C(=O)N(c2ccc(F)cc2F)C(C)C)c1=O [Compound 116]
galium; [4]
  Plant response rating, Galium: 100
galium; Rate 250 g/ha, 0 to 100 scale
  Plant response rating, Galium: 100
galium; [6]
  Plant response rating, Galium: 100
Hairy beggarticks; Rate 140 g/ha
  Plant response rating H. beggarticks: 80
Hairy beggarticks; Rate 560 g/ha
  Plant response rating H. beggarticks: 90
Littleseed canarygrass; [4]
  Plant response rating, LS canarygrass: 70
Littleseed canarygrass; Rate 250 g/ha, 0 to 100 scale
  Plant response rating, LS canarygrass: 80
Littleseed canarygrass; [6]
  Plant response rating, LS canarygrass: 100
blackgrass; Rate 62 g/ha, 0 to 100 scale
  Plant response rating, Blackgrass: 0
blackgrass; Rate 125 g/ha, 0 to 100 scale
  Plant response rating, Blackgrass: 40
blackgrass; [5]
  Plant response rating, Blackgrass: 80
blackgrass; [7]
  Plant response rating, Blackgrass: 80
Jointed goatgrass [1]; [4]
  Plant response rating, Jointed goatgra: 30
Jointed goatgrass [1]; Rate 250 g/ha, 0 to 100 scale
  Plant response rating, Jointed goatgra: 100
Jointed goatgrass [1]; [6]
  Plant response rating, Jointed goatgra: 65
Wild buckwheat; Rate 62 g/ha, 0 to 100 scale
  Plant response rating, Wild buckwheat: 0
Wild buckwheat; Rate 125 g/ha, 0 to 100 scale
  Plant response rating, Wild buckwheat: 0
Wild buckwheat; [5]
  Plant response rating, Wild buckwheat: 0
Wild buckwheat; [7]
  Plant response rating, Wild buckwheat: 0
Spring barley; [4]
  Plant response rating, Spring Barley: 40
Spring barley; Rate 250 g/ha, 0 to 100 scale
  Plant response rating, Spring Barley: 75
Spring barley; [6]
  Plant response rating, Spring Barley: 100
Jointed goatgrass [2]; Rate 62 g/ha, 0 to 100 scale
  Plant response rating, Jointed goatgra: 30
Jointed goatgrass [2]; Rate 125 g/ha, 0 to 100 scale
  Plant response rating, Jointed goatgra: 20
Jointed goatgrass [2]; [5]
  Plant response rating, Jointed goatgra: 40
Jointed goatgrass [2]; [7]
  Plant response rating, Jointed goatgra: 50
sunflower; Rate 62 g/ha, 0 to 100 scale
  Plant response rating, Sunflower: 20
sunflower; Rate 125 g/ha, 0 to 100 scale
  Plant response rating, Sunflower: 0
sunflower; [5]
  Plant response rating, Sunflower: 0
sunflower; [7]
  Plant response rating, Sunflower: 0
lambsquarters; Rate 140 g/ha
  Plant response rating, Lambsquarters: 0
lambsquarters; Rate 560 g/ha
  Plant response rating, Lambsquarters: 0
lambsquarters; Rate 1120 g/ha
  Plant response rating, Lambsquarters: 0
Wild mustard; Rate 62 g/ha, 0 to 100 scale
  Plant response rating, Wild mustard: 70
Wild mustard; Rate 125 g/ha, 0 to 100 scale
  Plant response rating, Wild mustard: 20
Wild mustard; [5]
  Plant response rating, Wild mustard: 40
Wild mustard; [7]
  Plant response rating, Wild mustard: 40
Field bindweed; Rate 140 g/ha
  Plant response rating Field bindweed: 0
Field bindweed; Rate 280 g/ha
  Plant response rating Field bindweed: 0
Field bindweed; Rate 560 g/ha
  Plant response rating Field bindweed: 50
Field bindweed; Rate 1120 g/ha
  Plant response rating Field bindweed: 50

## CCOC(=O)Cn1c(=O)on(C(=O)N(c2ccc(F)cc2)C(C)C)c1=O [Compound 128]
barnyardgrass; Postemergence, Rate 1000 g/ha
  Plant response rating, Barnyardgrass: 0
barnyardgrass; Pre-emergence, Rate 2000 g/ha
  Plant response rating, Barnyardgrass: 0

## Cc1ccccc1Cn1c(=O)on(C(=O)N(c2ccc(Cl)cc2)C(C)C)c1=O [Compound 136]
barnyardgrass; Postemergence, Rate 1000 g/ha
  Plant response rating, Barnyardgrass: 4
barnyardgrass; Pre-emergence, Rate 2000 g/ha
  Plant response rating, Barnyardgrass: 9
